Our source for the MIC and MBC values is patent publication US8673325B1, “Cosmetic compositions comprising EPA and salicylic acid and methods of making and using same” (Dignity Sciences Limited, priority 2012, dated 2014).

Structures are written as SMILES. Values after ≈ are worked out from the molar mass of the structure shown. Where two headings read alike, the source gives them in different places.

The assay relates to P. acnes NCTC737. The experiment in a line: MIC and MBC against P. acnes by broth micro-dilution (CLSI M11-A5). The format is cell-based. Particulars: for MIC: anaerobic 37° C., 48 h, lowest concentration preventing visible growth. The procedure:
Neomycin (“NEO”) was obtained and used as a 10 mg/mL solution in sterile saline. P. acnes NCTC737 was obtained from the National Collection of Type Cultures (Porton Down, UK). Minimum inhibitory (MIC) and bactericidal (MBC) concentration determinations MICs and MBCs were determined against P. acnes by broth micro-dilution according to protocol M11-A5 published by the Clinical and Laboratory Standards Institute (CLSI, 2001). […] ([…] Workstation; Don Whitley Scientific Ltd., Shipley, UK). Absorbance readings (A600) for the bacterial suspensions were determined and fresh media was used to adjust the inoculums to 1×10^7 CFU/mL. Inoculum sizes were confirmed by diluting in phosphate-buffered saline (PBS) and plating on SBA. Each well was inoculated with 5 μL of bacterial suspension. Negative control wells contained culture medium only, while positive control wells contained media inoculated with bacterial suspension. Further inoculated wells controlled for the antimicrobial effects of the greatest concentration of solvent (DMSO or ethanol) used in any of the test wells (ca. 10%). Microtitre plates were incubated anaerobically at 37° C. for 48 h, and then MICs were determined as the lowest concentration of each compound that prevented visible bacterial growth. MBCs were determined by plating 50 μL from each well showing no visible growth on to SBA and incubating these plates anaerobically at 37° C. for 96 h. […] MICs and MBCs were performed in duplicate.
A general note: Broth dilution looks for growth in wells or tubes with falling amounts of substance.

Setting [1] is: Cutibacterium acnes, NCTC737, 48 h, read-out: MIC.
[2] abbreviates: Cutibacterium acnes, NCTC737, lowest concentration that killed >99.9% of the initial inoculum, read-out: MBC.

In the case of `O=C(O)CCCCCCCC(=O)O` [AZA, azelaic acid], the MIC (commonly the lowest concentration that inhibits growth of the organism) was above 4096 µg/mL. Further, under setting [1], the MIC is above 4100 µg/mL. For the same compound, the MBC (commonly the smallest concentration meeting the test's criterion for killing) (MEC) was above 4096 µg/mL.
With `O=C(OOC(=O)c1ccccc1)c1ccccc1` [BPO, benzoyl peroxide], the MIC under setting [1] worked out at 64 µg/mL (≈ 264 µM). In addition, the minimal bactericidal concentration (MBC) was above 4100 µg/mL under setting [2] and above 4096 µg/mL (MEC).
In turn, `CC/C=C\C/C=C\C/C=C\C/C=C\C/C=C\CCCC(=O)O` [EPA, eicosapentaenoic acid] had an MIC of 128 µg/mL (≈ 423 µM). Also, the MIC under setting [1] is 64 to 128 µg/mL (≈ 212 to 423 µM). The MBC under setting [2] is above 4100 µg/mL. Also, under “MEC”, the MBC was above 4096 µg/mL.
Take `NS(=O)(=O)c1cc(C(=O)O)c(NCc2ccco2)cc1Cl` [FUS, furosemide]: under setting [1], the MIC stood at 2 µg/mL (≈ 6.05 µM). Besides, the MBC reads like this: under setting [2], 256 µg/mL (≈ 774 µM); (MEC) 256 µg/mL (≈ 774 µM).
`CCCCC/C=C\C/C=C\C/C=C\CCCCC(=O)O` [GLA, gamma-linolenic acid] registered an MIC of 64 µg/mL (≈ 230 µM). The MIC under setting [1] was 64 to 128 µg/mL (≈ 230 to 460 µM). For the same compound, under setting [2], the MBC was above 4100 µg/mL. The compound also returned an MBC (MEC) above 4096 µg/mL.
`NC[C@@H]1O[C@H](O[C@H]2[C@@H](O)[C@H](O[C@@H]3[C@@H](O)[C@H](N)C[C@H](N)[C@H]3O[C@H]3O[C@H](CN)[C@@H](O)[C@H](O)[C@H]3N)O[C@@H]2CO)[C@H](N)[C@@H](O)[C@@H]1O` [NEO, Neomycin] came in with an MIC of 8 µg/mL (≈ 13 µM). The compound also gave an MBC (MEC) of 16 µg/mL (≈ 26 µM). For the same compound, the minimal bactericidal concentration (MBC) (lowest concentration that killed >99.9% of the initial inoculum) came out at 16 µg/mL (≈ 26 µM).
Consider `O=C(O)c1ccccc1O` [SA, salicylic acid], for which the MIC under setting [1] worked out at 64 µg/mL (≈ 463 µM). Further, the MBC under setting [2] is above 4100 µg/mL and the MBC (MEC) is above 4096 µg/mL.
